Assay: Stability of the solid form under mass pressure
Type: physicochemical
Details: mass pressure of 1 ton for 3 minutes
Description: Form 3 is characterized by needle to ‘rod-like’ morphology. This morphology may be beneficial for flowability properties. In addition, Form 3 is found to be stable under mass pressure of 1 ton for 3 minutes.

Cc1cn2nc(-c3cc(=O)n4cc(N5CCNC6(CC6)C5)ccc4n3)cc(C)c2n1 [Form 3, 7-(4,7-diazaspiro[2.5]octan-7-yl)-2-(2,8-dimethylimidazo[1,2-b]pyridazin-6-yl)-4H-pyrido[1,2-a]pyrimidin-4-one]
stability under mass pressure: stable
